Each block holds one compound with its values, some of them ahead of it. Calls of active or inactive are those of the source.
Columns and labels:
[1] = HEp-2 cell cytotoxicity, dose response, cytotoxicity control for RSV inhibitor project, HTS (AID 2410); type: functional; details: human respiratory syncytial virus
Cytochrome P450 1A2 = molecular target: T1, Cytochrome P450 1A2 (Homo sapiens, UniProt P05177);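 also: PubChem cytochrome P450 panel assay, CYP1A2 panel member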
T1 sequence (P05177 whole entry): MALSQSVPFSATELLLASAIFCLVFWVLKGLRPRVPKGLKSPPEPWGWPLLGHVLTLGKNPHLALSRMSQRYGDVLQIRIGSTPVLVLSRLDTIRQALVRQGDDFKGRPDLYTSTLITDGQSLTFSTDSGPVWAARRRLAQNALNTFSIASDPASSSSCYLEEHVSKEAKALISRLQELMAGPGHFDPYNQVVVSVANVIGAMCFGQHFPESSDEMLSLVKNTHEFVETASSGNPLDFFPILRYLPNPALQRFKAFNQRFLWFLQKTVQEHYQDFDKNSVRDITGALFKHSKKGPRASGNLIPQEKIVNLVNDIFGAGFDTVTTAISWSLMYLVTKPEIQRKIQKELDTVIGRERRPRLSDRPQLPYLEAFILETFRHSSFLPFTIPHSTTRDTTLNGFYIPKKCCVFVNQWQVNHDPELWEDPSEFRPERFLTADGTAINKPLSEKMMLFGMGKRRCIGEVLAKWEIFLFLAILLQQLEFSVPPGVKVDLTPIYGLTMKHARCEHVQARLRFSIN

Cytochrome P450 2C19 = Cytochrome P450 2C19 (Homo sapiens, UniProt P33261); test: Cytochrome panel assay with activity outcomes. Panel member name: p450-cyp2c19 Compounds with AC50 equal or less than 10 uM are considered active; type: functional
Sequence of Cytochrome P450 2C19 (P33261 whole entry): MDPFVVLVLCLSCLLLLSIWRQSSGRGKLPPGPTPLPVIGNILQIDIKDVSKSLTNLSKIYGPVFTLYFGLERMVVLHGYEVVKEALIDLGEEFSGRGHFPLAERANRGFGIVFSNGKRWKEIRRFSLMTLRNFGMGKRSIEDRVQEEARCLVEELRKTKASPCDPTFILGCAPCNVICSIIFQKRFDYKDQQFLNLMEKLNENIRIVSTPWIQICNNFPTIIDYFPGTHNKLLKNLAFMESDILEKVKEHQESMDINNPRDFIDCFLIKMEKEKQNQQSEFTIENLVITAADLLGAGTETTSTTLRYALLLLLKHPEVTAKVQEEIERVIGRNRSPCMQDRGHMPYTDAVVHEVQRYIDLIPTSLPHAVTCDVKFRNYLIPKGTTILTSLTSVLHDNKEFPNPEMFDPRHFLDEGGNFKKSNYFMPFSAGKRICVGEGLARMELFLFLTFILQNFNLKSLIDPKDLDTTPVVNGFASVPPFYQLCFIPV

[2] = molecular target: T2, Heat shock factor protein 1 (Mus musculus, UniProt P38532); test: inhibition of MG132-induced HSE-luciferase signal, confirmation, cell-based, NIH3T3, luminescence, dose retest (AID 2382); type: functional;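 also: NIH3T3 fibroblasts with HSF1-driven luciferase reporter stressed by proteasome inhibitor MG132; luminescence from HSF1-driven luciferase expression after 8 hours of MG132 stress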
T2 sequence (P38532 whole entry): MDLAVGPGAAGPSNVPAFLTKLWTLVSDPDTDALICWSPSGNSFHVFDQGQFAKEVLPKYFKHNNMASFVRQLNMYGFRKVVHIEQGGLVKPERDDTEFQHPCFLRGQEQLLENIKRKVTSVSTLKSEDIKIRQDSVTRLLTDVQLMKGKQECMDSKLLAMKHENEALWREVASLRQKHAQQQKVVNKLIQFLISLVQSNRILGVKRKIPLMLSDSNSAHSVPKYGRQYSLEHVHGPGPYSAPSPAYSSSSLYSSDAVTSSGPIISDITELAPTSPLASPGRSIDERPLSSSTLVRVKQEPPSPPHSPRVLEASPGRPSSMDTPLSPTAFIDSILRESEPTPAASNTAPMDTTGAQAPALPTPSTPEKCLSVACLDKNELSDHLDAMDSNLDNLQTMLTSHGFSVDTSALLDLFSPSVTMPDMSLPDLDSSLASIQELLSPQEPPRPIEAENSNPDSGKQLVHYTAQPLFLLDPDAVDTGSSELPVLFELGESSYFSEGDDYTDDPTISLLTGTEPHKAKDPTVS

[3] = inhibitors of intracellular T. cruzi replication, confirmation, NIH3T3 host cells, beta-gal luminescence (AID 2044); type: functional, cell-based;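 also: intracellular parasites grown in NIH/3T3 mouse fibroblasts as host cells; luminescent beta-galactosidase reporter signal from transgenic T. cruzi replicating inside host cells; inhibitors lower the luminescence signal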
[4] = cytotoxicity toward NIH3T3 fibroblasts, dose response, counter-screen, cell-based, ATP luminescence, mouse fibroblasts (AID 2010); type: functional;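 also: cells exposed to compound for about 90 hours before reading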
[5] = molecular target: T3, Rac GTPase-activating protein 1 (Homo sapiens, UniProt Q9H0H5); test: MgcRacGAP GTPase-activating activity inhibitors, confirmation, biochemical, ADP Hunter fluorescence, primary and confirmatory (AID 624330); type: functional
T3 sequence (Q9H0H5 whole entry): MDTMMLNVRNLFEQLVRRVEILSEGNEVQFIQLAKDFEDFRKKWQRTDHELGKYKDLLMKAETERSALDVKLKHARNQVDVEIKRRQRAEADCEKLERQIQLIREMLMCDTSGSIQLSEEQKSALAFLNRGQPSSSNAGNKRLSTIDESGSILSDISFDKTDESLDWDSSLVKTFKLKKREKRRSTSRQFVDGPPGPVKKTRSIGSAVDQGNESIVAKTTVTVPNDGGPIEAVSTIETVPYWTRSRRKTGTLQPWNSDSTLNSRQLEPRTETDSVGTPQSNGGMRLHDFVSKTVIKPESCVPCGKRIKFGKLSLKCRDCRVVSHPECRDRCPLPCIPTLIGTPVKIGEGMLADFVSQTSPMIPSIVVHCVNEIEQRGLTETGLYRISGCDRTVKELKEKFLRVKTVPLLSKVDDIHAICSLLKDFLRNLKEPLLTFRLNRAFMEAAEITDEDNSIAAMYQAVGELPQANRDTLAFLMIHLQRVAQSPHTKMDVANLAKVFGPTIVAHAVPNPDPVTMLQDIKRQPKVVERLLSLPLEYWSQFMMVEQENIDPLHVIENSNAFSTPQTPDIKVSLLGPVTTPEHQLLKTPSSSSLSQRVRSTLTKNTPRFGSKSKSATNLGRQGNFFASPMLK

AC50 (Cytochrome P450 1A2): 28.2 µM (inconclusive)
AC50 (Cytochrome P450 2C19; read-out: AC50): 20 µM (inconclusive)
Compound: O=C(NCc1ccccc1Cl)c1cnccn1

IC50 [5]: 172 µM (active)
Compound: CCCCN(C)C(=O)C1CCN(Cc2cccc(OCc3ccccc3)c2)CC1

EC50 [2]: > 195 µM (not active)
Compound: CCC(=O)N(CCC(c1ccco1)c1ccccc1OC)Cc1cccs1 (stereo not given)

EC50 [2]: > 195 µM (not active)
Compound: COc1ccc(-c2nn(-c3ccccc3)cc2/C=C(\CC(=O)O)c2nc3ccccc3s2)cc1OC

EC50 [2]: > 195 µM (not active)
Compound: Cc1cc(NC(=O)Cn2ccc([N+](=O)[O-])n2)no1

AC50 (Cytochrome P450 2C19; read-out: AC50): 39.8 µM (inconclusive)
Compound: O=C(O)CCC(=O)CCC(=O)c1ccccc1

IC50 [5]: 59.6 µM (active)
Compound: CCOc1cc(/C=N/NC(=O)c2ccc(=O)n(C)c2)ccc1O

AC50 (Cytochrome P450 2C19): inconclusive
Compound: C[C@@]12C=CC(=O)C=C1CC[C@@H]1[C@@H]2[C@H](O)C[C@]2(C)[C@@H]1CC[C@]2(O)C(=O)CO

AC50 (Cytochrome P450 1A2): 12.6 µM (inconclusive)
Compound: O=c1c(CCc2ccccc2)nc2cncnc2n1Cc1ccccc1Cl

AC50 (Cytochrome P450 1A2): 1 µM (inconclusive)
Compound: O=C1Nc2ccc(S(=O)(=O)O)cc2/C1=N/Nc1ccccc1[N+](=O)[O-]

AC50 (Cytochrome P450 1A2): 14.1 µM (inconclusive)
Compound: COc1ccc(CC(=O)NCc2ccccn2)cc1OC

AC50 (Cytochrome P450 2C19; read-out: AC50): 39.8 µM (inconclusive)
Compound: COC(=O)[C@@]1(Cc2ccc(OC)cc2)[C@H]2c3cc(C(=O)N4CCCC4)n(Cc4ccccn4)c3C[C@H]2CN1C(=O)c1ccccc1

IC50 [5]: 45.3 µM (active)
Compound: Oc1ccc(/C=N/Nc2cc(N3CCOCC3)nc(N3CCOCC3)n2)cc1

IC50 [5]: 83.2 µM (active)
Compound: Cc1ccc(CNc2ncc(-c3ccccc3)n2C)o1

AC50 (Cytochrome P450 1A2): 39.8 µM (inconclusive)
Compound: COc1nc(OCCNC(C)=O)nc(N(C)C)n1

AC50 (Cytochrome P450 2C19): inconclusive
Compound: O=C(O)[C@H](Cc1c[nH]c2ccccc12)N1C(=O)c2ccccc2C1=O

IC50 [5]: 115 µM (active)
Compound: COc1ccc([C@H]2CN(c3ccc(OC)cc3)C(=O)[C@@H]2CC(=O)Nc2ccccc2)cc1

AC50 (Cytochrome P450 2C19; read-out: AC50): 28.2 µM (inconclusive)
Compound: Cc1ccc(NC(=O)CCC(=O)NNC(=O)c2cccs2)c(C)c1

IC50 [5]: 79.5 µM (active)
Compound: N#Cc1c(O)nsc1Nc1ccccc1

IC50 [5]: 46.6 µM (active)
Compound: O=c1c2c([N+](=O)[O-])cc([N+](=O)[O-])cc2[s+]([O-])n1Cc1ccccc1 (stereo not given)

AC50 (Cytochrome P450 2C19; read-out: AC50): 22.4 µM (inconclusive)
Compound: CCOC(=O)N1CCN(C(=O)c2ccc(NC(C)=O)cc2)CC1

IC50 [5]: 110 µM (active)
Compound: COc1cc(CN2CCC(C(=O)N3CCN(c4ccccc4F)CC3)CC2)ccc1O

AC50 (Cytochrome P450 1A2): 12.6 µM (inconclusive)
Compound: Cc1nn(Cc2c(F)c(F)c(F)c(F)c2F)c(C)c1NC(=O)c1cccc(COc2ccc(Cl)cc2)c1

The next lines start with the compound.

Compound: Cc1ccc(-c2ccc(/C=N\NC(=O)C3C(=O)NCC3c3ccccc3)o2)cc1Cl (stereo not given)
CC50 [1]: 13 µM (active)

Compound: COc1ccc(C(=O)/C=C/c2ccc(F)cc2)c(OC(=O)c2ccc([N+](=O)[O-])cc2)c1
CC50 [1]: 20.5 µM (active)

Compound: O=C(CC(Nc1ccccc1Cl)C(=O)OCC(=O)c1cccs1)c1ccccc1 (stereo not given)
EC50 [2]: 0.847 µM (active)

Compound: CN(C)c1oc(-c2ccc(OCc3ccc(Cl)cc3)cc2)nc1C#N
EC50 [3]: 8.31 µM (active)
EC50 [4]: > 60 µM (not active)

Compound: CCCCc1c(O)nc2ccc(C)cc2c1C
CC50 [1]: 26.6 µM (active)

Compound: CCCCNc1[nH]c(=S)nc2cc(OC)c(OC)cc12
IC50 [5]: 61.8 µM (active)

Compound: O=C1NC(=O)/C(=C/c2cccc([N+](=O)[O-])c2)N1
CC50 [1]: 31.2 µM (active)

Compound: COc1cccc(CNc2ccc3c(c2)CCC3)c1
EC50 [3]: 7.93 µM (active)
EC50 [4]: > 60 µM (not active)

Compound: Oc1ccc(Nc2ncnc3ccccc23)cc1
IC50 [5]: 15.5 µM (active)

Compound: CCc1noc(C)c1C(=O)Nc1ccc(S(=O)(=O)N2CCC(C)CC2)cc1
CC50 [1]: 32.9 µM (active)

Compound: O=C(Cc1ccccc1)N1CCN(Cc2ccc(F)cc2)CC1
IC50 [5]: 130 µM (active)

Compound: Cc1nc(N2CCOCC2)nc(N2CCCCC2C)c1[N+](=O)[O-] (stereo not given)
CC50 [1]: 21.9 µM (active)

Compound: CCn1c(N=C(S)Nc2ccccc2)nc2ccccc21
EC50 [3]: 0.53 µM (active)
EC50 [4]: > 60 µM (inconclusive)

Compound: O=[N+]([O-])c1nn(-c2ccc3c(c2)OCCO3)[n+]([O-])c1NCCCO
EC50 [3]: 0.75 µM (active)
EC50 [4]: > 60 µM (not active)

Compound: O=C(c1ccco1)N(CCCN1CCOCC1)c1nc(-c2ccc(Cl)cc2)cs1
EC50 [3]: 1.8 µM (active)
EC50 [4]: > 60 µM (not active)

Compound: Oc1ccc(N2CCN(Cc3ccc(OCCCN4CCCCC4)cc3)CC2)cc1
EC50 [3]: 0.114 µM (active)
EC50 [4]: > 30 µM (not active)

Compound: O=C(N/N=C/c1ccc([N+](=O)[O-])o1)C1CCCC1
EC50 [3]: 0.429 µM (active)
EC50 [4]: > 60 µM (not active)

Compound: C/C(=N\NC(=O)c1cc(-c2cccc(OC(C)C)c2)nc2ccccc12)c1cccnc1
EC50 [3]: 0.611 µM (active)
EC50 [4]: > 30 µM (not active)

Compound: COc1ccccc1CCNC1CCC(C(C)(C)C)CC1 (stereo not given)
EC50 [3]: 1.37 µM (active)
EC50 [4]: > 60 µM (not active)

Compound: Cc1ccc(Nc2c([N+](=O)[O-])nn(-c3ccc(Cl)cc3)[n+]2[O-])cc1C
EC50 [3]: 0.747 µM (active)
EC50 [4]: > 60 µM (not active)

Compound: Cc1cccc(OCC(=O)N2CCN(Cc3ccncc3)CC2)c1
IC50 [5]: 82.9 µM (active)

Compound: Cc1n[nH]c(-c2ccc(OCc3cnn(-c4ccccc4)c3)cc2O)c1Oc1ccc(Cl)cc1
EC50 [3]: 2.43 µM (active)
EC50 [4]: > 60 µM (not active)

Compound: Cc1ccc2nc(-c3ccncc3)cc(C(=O)NCCc3ccc(F)cc3)c2c1
EC50 [3]: 1.7 µM (active)
EC50 [4]: > 60 µM (not active)

Compound: CSc1ccccc1OCc1cc(C(=O)N(C)C2CCCc3ccccc32)no1 (stereo not given)
CC50 [1]: 20.4 µM (active)

Compound: CN(C)CCCN(C(=O)c1cccs1)c1nc2cc3c(cc2s1)OCO3
EC50 [3]: 0.163 µM (active)
EC50 [4]: > 60 µM (inconclusive)

Compound: N#C[C@@H](/N=N\c1ccccc1C(=O)O)C(N)=O
AC50 (Cytochrome P450 2C19): inconclusive

Compound: COC(=O)C1Cc2c([nH]c3ccccc23)C2(CCN(Cc3ccccc3)CC2)N1 (stereo not given)
EC50 [3]: 1.6 µM (active)
EC50 [4]: 10.1 µM (active)

Compound: Cc1ccccc1OCCCN1CCCC1
AC50 (Cytochrome P450 2C19; read-out: AC50): 10 µM (inconclusive)

Compound: COc1ccccc1/C=C/[C@@H]1C[C@H]2CN(Cc3cccc(Cl)c3)C(=O)[C@]23CCCN13
CC50 [1]: 38.4 µM (active)

Compound: CC(C)=NNc1ncnc2[nH]cnc12
AC50 (Cytochrome P450 1A2): 0.794 µM (inconclusive)

Compound: COC(=O)c1ccc(-c2sc3nc(N4CCOCC4)c4c(c3c2N)CCCC4)o1
EC50 [3]: 2.63 µM (active)
EC50 [4]: 13.2 µM (active)

Compound: C/C(=N\c1ccc(O)cc1)c1sc2ccccc2c1O
IC50 [5]: 123 µM (active)

Compound: COc1ccc2nc(Nc3ccccc3)sc2c1
CC50 [1]: 33.6 µM (active)

Compound: Cc1cccc(NS(=O)(=O)c2cc(C(=O)N3CCc4ccccc4C3)ccc2Cl)c1C
EC50 [3]: 2.18 µM (active)
EC50 [4]: > 60 µM (not active)

Compound: CN1c2ccccc2Oc2nnc(Cl)cc21
CC50 [1]: 43.3 µM (active)

Compound: NNC(N)=O [HYDRAZINECARBOXAMIDE]
AC50 (Cytochrome P450 1A2): 39.8 µM (inconclusive)

Compound: Nc1ccc(N2CCCCC2)c(Cl)c1
IC50 [5]: 46.4 µM (active)

Compound: Nc1nc2c(s1)CCc1ccccc1-2
IC50 [5]: 41.4 µM (active)

Compound: Cc1cc(C)c(S(=O)(=O)c2ccccc2Cl)c(Cl)n1
EC50 [3]: 2.32 µM (active)
EC50 [4]: > 60 µM (not active)

Source: ChEMBL document CHEMBL1201862, “PubChem BioAssay data set” (2004)
